According to publication PMC8750417, “Intracellular Amplifiers of Reactive Oxygen Species Affecting Mitochondria as Radiosensitizers” (Cancers, 2021):

Tested on: A2780 cells
Assay: Mechanism of death of A2780 cells (Annexin A5/PI flow cytometry)
Type: cell-based, human
Conditions: A2780, 48 h
Description: Figure S54. Effect of prodrugs 1 and 2c (48 h incubation) on the intracellular amount of GSH in Jurkat cells. *: p< 0.05; ns: non-significant (Student’s t test). Detailed experimental description is provided above.
Study of the mechanism of death of A2780 cells induced by prodrug 2c and controls A2780 cells were seeded into 96 well culture plates at the same cell concentration and in the same medium as applied for the above described MTT assay (48 h incubation with the prodrugs). The next day, stock solutions of prodrugs of different concentrations (1 µ L, solvent DMSO, final concentrations in wells were 5, 10 and 30 µ M) or carrier only (DMSO, 1 µ L, final concentration 1 %, v/v) were added to the wells and incubated in the chamber filled with CO 2 (5%). After 48 h supernatants were transferred into 1.5 mL Eppendorf tubes and 100 µ L of DPBS was added to transfer supernatant residue into tube. Trypsin (0.25%, 50 µ L) was then added to well to detach the cells. All supernatants in Eppendorf tubes were combined back into wells. After gently pipetting up and down, 50 µ L of cell solutions was transferred into a new Eppendorf tube and incubated with 200 µ L of staining solution, consisting of Annexin A5-Fitc (5 µ L) and propidium iodide (PI, 330 ng) per 1 mL buffer (conc. 1X). […]

For `CC1(C)OB(c2ccc(COC(=O)N(Cc3cn(Cc4ccc(Cn5cc(Cc6ccccc6)nn5)cc4)nn3)[c-]3cccc3)cc2)OC1(C)C.[Fe+2].c1cc[cH-]c1` [2c], the “mechanism of cell death” value was “mainly via necrosis”.
